Experimental data taken from patent publication US20050158425A1, “Thin mouthfeel calcium-fortified beverage containing calcium lactate gluconate citrate” (PURAC BIOCHEM BV, priority 2003, published 2005).

Columns and labels:
[1] = Dissolution rate of calcium-fortified beverages by conductivity; type: physicochemical; conditions: 20° C.
Method: The dissolution rates of calcium lactate gluconate (ratio Ca lactate:Ca gluconate 80/20) and calcium lactate gluconate citrate (in a ratio calcium lactate:calcium gluconate:calcium citrate of 12.7:47.8:39.5) beverages were determined by measuring the conductivity and calculating the dissolution rate from the conductivity indices. Said beverages contained 10, and 30% R.D.I respectively in water at 20° C., 30% in apple juice at 20° C. and 10% in cranberry juice at 20° C.

[2] = Hygroscopicity of powdered samples; type: physicochemical; conditions: for water pick up (hygroscopicity): 20° C., 60% relative humidity, 21 days, powdered sample; for state of powdered sample (hygroscopicity): 35° C., 70% relative humidity
Method: The hygroscopicities of powdered samples of calcium lactate gluconate citrate (in a ratio calcium lactate:calcium gluconate:calcium citrate of 12.7:47.8:39.5) and calcium lactate gluconate (lactate/gluconate ratio 20/80) were measured at 20° C. at 60% relative humidity and at 35° C. at 70% relative humidity. At 20° C. at 60% relative humidity both samples hardly pick up any water (about 1%) for 21 days.

SMILES	Dissolution time in seconds (at conductivity 99.5) ([1]; Apple juice (30% RDI))	Dissolution time in seconds (at conductivity 99.5) ([1]; Cranberry juice (10% RDI))	Dissolution time in seconds (at conductivity 99.5) ([1]; Water (10% RDI))	water pick up (hygroscopicity) [2]	state of powdered sample (hygroscopicity) [2]	hygroscopicity ([2]; at increased temperatures)
CC(O)C(=O)[O-].O=C([O-])[C@H](O)[C@@H](O)[C@H](O)[C@H](O)CO.[Ca+2] [Calcium lactate gluconate, calcium lactate gluconate]	25 s	34 s	35 s			
CC(O)C(=O)[O-].O=C([O-])[C@H](O)[C@@H](O)[C@H](O)[C@H](O)CO.[Ca+2] [calcium lactate gluconate (20/80), calcium lactate gluconate]				about 1%	completely liquefied within 2 days	
CC(O)C(=O)O.O=C(O)[C@H](O)[C@@H](O)[C@H](O)[C@H](O)CO.O=C([O-])CC(O)(CC(=O)[O-])C(=O)O.[Ca+2] [calcium lactate gluconate citrate]	30 s	27 s	23 s	about 1%	still had the powdered structure and appeared unchanged after 20 days	very low hygroscopicity
